Experimental data taken from ChEMBL document CHEMBL5608229, “Innovative Multistage ML-QSAR Models for Malaria: From Data to Discovery” (ACS Med Chem Lett, 2024).

Experiments:
Plasmodium falciparum [1] = experiment: Antiplasmodial activity against asexual blood-stage CQ-sensitive Plasmodium falciparum 3D7 infected in RBC assessed as parasite growth reduction incubated for 72 hrs by SybrGreen dye based analysis; type: functional, organism-based; conditions: 3D7, Erythrocyte
Plasmodium falciparum [2] = experiment: Antiplasmodial activity against asexual blood-stage multidrug-resistant Plasmodium falciparum Dd2 infected in RBC assessed as parasite growth inhibition at 5 uM incubated for 72 hrs by SybrGreen dye based analysis relative to control; type: functional; conditions: Dd2, Erythrocyte
Plasmodium falciparum [3] = experiment: Antiplasmodial activity against […] Plasmodium falciparum NF54 assessed as parasite growth inhibition at 5 uM incubated for 48 hrs by luciferase based analysis relative to control; type: functional
Plasmodium falciparum [4] = experiment: Antiplasmodial activity against asexual blood-stage CQ-sensitive Plasmodium falciparum 3D7 infected in RBC assessed as parasite growth inhibition at 5 uM incubated for 72 hrs by SybrGreen dye based analysis relative to control; type: functional; conditions: 3D7, Erythrocyte
[5] = Selectivity index, ratio of CC50 for African green monkey COS-7 cells to EC50 for asexual blood-stage CQ-sensitive Plasmodium falciparum 3D7 infected in RBC; type: toxicity; conditions: read-out: Ratio CC50/EC50
[6] = Cytotoxicity against human HepG2 cells incubated for 72 hrs by MTT assay; type: toxicity, cell-based
Plasmodium berghei [7] = experiment: Antiplasmodial activity against asexual liver schizonts-stage Plasmodium berghei infected in human Huh-7 cells assessed as parasite growth inhibition at 10 uM pretreated parasite with compound for 1 hr followed by parasitic infection in cells for 46 hrs by bioluminescence assay relative to control; type: functional
[8] = Cytotoxicity against African green monkey COS-7 cells incubated for 72 hrs by MTT assay; type: toxicity, cell-based; conditions: chlorocebus aethiops
Plasmodium falciparum [9] = experiment: Antiplasmodial activity against asexual blood-stage multidrug-resistant Plasmodium falciparum Dd2 infected in RBC assessed as parasite growth reduction incubated for 72 hrs by SybrGreen dye based analysis; type: functional, organism-based; conditions: Dd2, Erythrocyte
Plasmodium berghei [10] = experiment: Antiplasmodial activity against […] Plasmodium berghei infected in mouse model assessed as parasite growth inhibition at 10 uM pre-infected mouse with parasite followed by blood collection from mouse and subsequent addition of compound in blood measured after 24 hrs by nano-luciferase based analysis relative to control; type: functional; conditions: read-out: INH
[11] = Selectivity index, ratio of CC50 for human HepG2 cells to EC50 for asexual blood-stage chloroquine-sensitive Plasmodium falciparum 3D7 infected in RBC

## COc1cc2nc(NCCc3nc(=O)c4c(C)c(C)sc4[nH]3)nc(N)c2cc1OC
Plasmodium falciparum [1]
  EC50: 1.38 µM
Plasmodium falciparum [2]
  inhibition at 5 µM: ≥ 50%
Plasmodium falciparum [3]
  inhibition at 5 µM: 94%
Plasmodium falciparum [4]
  inhibition at 5 µM: ≥ 50%
[5]
  selectivity ratio: 9
[6]
  CC50 at 72 h: 13.6 µM
Plasmodium berghei [7]
  inhibition at 10 µM: 90.3%
[8]
  CC50 at 72 h: 12.3 µM
Plasmodium falciparum [9]
  EC50: 3.67 µM
Plasmodium berghei [10]
  percent ookinete growth inhibition (ex vivo) at 10 µM: 65%
[11]
  selectivity ratio: 9.9

## C=CCc1cc(CN2CCC3(CC2)CN(C)CCN3C)ccc1O
Plasmodium falciparum [1]
  EC50: 1.49 µM
Plasmodium falciparum [2]
  inhibition at 5 µM: > 50%
Plasmodium falciparum [3]
  inhibition at 5 µM: 51%
Plasmodium falciparum [4]
  inhibition at 5 µM: > 50%
[5]
  selectivity ratio: > 67
[6]
  CC50 at 72 h: > 100 µM
Plasmodium berghei [7]
  inhibition at 10 µM: 0%
[8]
  CC50 at 72 h: > 100 µM
Plasmodium falciparum [9]
  EC50: 2.59 µM
Plasmodium berghei [10]
  percent ookinete growth inhibition (ex vivo) at 10 µM: 5.43%
[11]
  selectivity ratio: > 67

## c1ccc(CCN2CCC(NC34CC5CC(CC(C5)C3)C4)CC2)cc1
Plasmodium falciparum [1]
  EC50: 1.78 µM
Plasmodium falciparum [2]
  inhibition at 5 µM: > 90%
Plasmodium falciparum [3]
  inhibition at 5 µM: 86%
Plasmodium falciparum [4]
  inhibition at 5 µM: > 90%
[5]
  selectivity ratio: 27
[6]
  CC50 at 72 h: 38.1 µM
Plasmodium berghei [7]
  inhibition at 10 µM: 0%
[8]
  CC50 at 72 h: 48.3 µM
Plasmodium falciparum [9]
  EC50: 0.43 µM
Plasmodium berghei [10]
  percent ookinete growth inhibition (ex vivo) at 10 µM: 16%
[11]
  selectivity ratio: 21

## CCN(CC)CCCC(C)Nc1ccnc2cc(Cl)ccc12 (configuration not stated) [CHLOROQUINE]
Plasmodium falciparum [1]
  EC50: 0.008 µM
Plasmodium falciparum [9]
  EC50: 0.055 µM

## Oc1c(CN2CCCCC2)cc(CN2CCCCC2)nc1-c1ccccc1
Plasmodium falciparum [1]
  EC50: 1.55 µM
Plasmodium falciparum [2]
  inhibition at 5 µM: > 50%
Plasmodium falciparum [3]
  inhibition at 5 µM: 51%
Plasmodium falciparum [4]
  inhibition at 5 µM: > 50%
[5]
  selectivity ratio: > 64
[6]
  CC50 at 72 h: > 100 µM
Plasmodium berghei [7]
  inhibition at 10 µM: 0%
[8]
  CC50 at 72 h: > 100 µM
Plasmodium falciparum [9]
  EC50: 1.65 µM
Plasmodium berghei [10]
  percent ookinete growth inhibition (ex vivo) at 10 µM: 0%
[11]
  selectivity ratio: > 64

## CCc1nc(N)nc(N)c1-c1ccc(Cl)cc1 [PYRIMETHAMINE]
Plasmodium falciparum [1]
  EC50: 0.039 µM
Plasmodium falciparum [9]
  EC50: 6.01 µM

## CCc1ccc(C2CC(=O)C3=C(C2)NC(C)=C(C(=O)OCCc2ccccc2)C3c2ccncc2)cc1 (configuration not stated)
Plasmodium falciparum [1]
  EC50: 13.5 µM
Plasmodium falciparum [3]
  inhibition at 5 µM: 14%
[5]
  selectivity ratio: 9
[6]
  CC50 at 72 h: 54.4 µM
Plasmodium berghei [7]
  inhibition at 10 µM: 92.2%
[8]
  CC50 at 72 h: 125 µM
Plasmodium berghei [10]
  percent ookinete growth inhibition (ex vivo) at 10 µM: 11%
[11]
  selectivity ratio: 4

## Cc1ccc(Nc2nc(-c3ccccc3Cl)nc3ccccc23)cc1
Plasmodium falciparum [1]
  EC50: > 10 µM
Plasmodium falciparum [3]
  inhibition at 5 µM: 1%
[6]
  CC50 at 72 h: 33.2 µM
[8]
  CC50 at 72 h: 42.8 µM
Plasmodium berghei [10]
  percent ookinete growth inhibition (ex vivo) at 10 µM: 45.6%

## Clc1ccc(-c2nc(Nc3ccc(I)cc3)c3ccccc3n2)cc1
Plasmodium falciparum [1]
  EC50: > 10 µM
Plasmodium falciparum [3]
  inhibition at 5 µM: 6%
[6]
  CC50 at 72 h: 34.8 µM
[8]
  CC50 at 72 h: 51.5 µM
Plasmodium berghei [10]
  percent ookinete growth inhibition (ex vivo) at 10 µM: 44.7%

## CCCOc1c(Br)cc(C2C3=C(CCCC3=O)NC3=C2C(=O)CCC3)cc1OC
Plasmodium falciparum [1]
  EC50: > 10 µM
Plasmodium falciparum [3]
  inhibition at 5 µM: 9.5%
[6]
  CC50 at 72 h: 30.5 µM
Plasmodium berghei [7]
  inhibition at 10 µM: 6.96%
[8]
  CC50 at 72 h: 56.4 µM
Plasmodium berghei [10]
  percent ookinete growth inhibition (ex vivo) at 10 µM: 56.8%

## C[C@H]1[C@H](OC(=O)CCC(=O)O)O[C@@H]2O[C@@]3(C)CC[C@H]4[C@H](C)CC[C@@H]1[C@@]24OO3 [ARTESUNATE]
Plasmodium falciparum [1]
  EC50: 0.002 µM
Plasmodium falciparum [9]
  EC50: 0.002 µM

## c1ccc(C23CN4CCN(CC(C4)C2NCc2ccc4c(c2)OCCO4)C3)cc1 (configuration not stated)
Plasmodium falciparum [1]
  EC50: > 10 µM
Plasmodium falciparum [3]
  inhibition at 5 µM: 6%
[6]
  CC50 at 72 h: > 100 µM
Plasmodium berghei [7]
  inhibition at 10 µM: 0%
[8]
  CC50 at 72 h: > 100 µM
Plasmodium berghei [10]
  percent ookinete growth inhibition (ex vivo) at 10 µM: 0%

## COc1ccc(CN2CCCC(CO)(Cc3ccccc3)C2)c(C)c1C (configuration not stated)
Plasmodium falciparum [1]
  EC50: > 10 µM
Plasmodium falciparum [3]
  inhibition at 5 µM: 13.5%
[6]
  CC50 at 72 h: 44.1 µM
Plasmodium berghei [7]
  inhibition at 10 µM: 73.9%
[8]
  CC50 at 72 h: 50.4 µM
Plasmodium berghei [10]
  percent ookinete growth inhibition (ex vivo) at 10 µM: 42.7%

## c1ccc(C23CN4CCN(CC(C4)C2NCc2nc4ccccc4[nH]2)C3)cc1 (configuration not stated)
Plasmodium falciparum [1]
  EC50: > 10 µM
Plasmodium falciparum [3]
  inhibition at 5 µM: 20%
[6]
  CC50 at 72 h: > 100 µM
Plasmodium berghei [7]
  inhibition at 10 µM: 0%
[8]
  CC50 at 72 h: > 100 µM
Plasmodium berghei [10]
  percent ookinete growth inhibition (ex vivo) at 10 µM: 56%

## COc1cc2nnc(NCC3(N(C)C)CCCCC3)nc2cc1OC
Plasmodium falciparum [1]
  EC50: 0.65 µM
Plasmodium falciparum [2]
  inhibition at 5 µM: > 50%
Plasmodium falciparum [3]
  inhibition at 5 µM: 94%
Plasmodium falciparum [4]
  inhibition at 5 µM: > 50%
[5]
  selectivity ratio: 78
[6]
  CC50 at 72 h: 93.1 µM
Plasmodium berghei [7]
  inhibition at 10 µM: 0%
[8]
  CC50 at 72 h: 51 µM
Plasmodium falciparum [9]
  EC50: 2.65 µM
Plasmodium berghei [10]
  percent ookinete growth inhibition (ex vivo) at 10 µM: 65.3%
[11]
  selectivity ratio: 142

## c1ccc2c(CCNC34CC5CC(CC(C5)C3)C4)c[nH]c2c1
Plasmodium falciparum [1]
  EC50: 11.8 µM
Plasmodium falciparum [3]
  inhibition at 5 µM: 12%
[5]
  selectivity ratio: 7
[6]
  CC50 at 72 h: 53.1 µM
Plasmodium berghei [7]
  inhibition at 10 µM: 0%
[8]
  CC50 at 72 h: 77.3 µM
[11]
  selectivity ratio: 4.5

## c1ccc2c(CCNC3CC4CCC3C4)c[nH]c2c1 (configuration not stated)
Plasmodium falciparum [1]
  EC50: > 10 µM
Plasmodium falciparum [3]
  inhibition at 5 µM: 11.5%
[6]
  CC50 at 72 h: > 100 µM
Plasmodium berghei [7]
  inhibition at 10 µM: 0%
[8]
  CC50 at 72 h: > 100 µM

## CN(C)CCCN(CCCN(C)C)Cc1cccc2ccccc12
Plasmodium falciparum [1]
  EC50: 5.46 µM
Plasmodium falciparum [2]
  inhibition at 5 µM: > 50%
Plasmodium falciparum [3]
  inhibition at 5 µM: 33%
Plasmodium falciparum [4]
  inhibition at 5 µM: > 50%
[5]
  selectivity ratio: > 18
[6]
  CC50 at 72 h: > 100 µM
Plasmodium berghei [7]
  inhibition at 10 µM: 0%
[8]
  CC50 at 72 h: > 100 µM
Plasmodium falciparum [9]
  EC50: 2.64 µM
Plasmodium berghei [10]
  percent ookinete growth inhibition (ex vivo) at 10 µM: 3.26%
[11]
  selectivity ratio: > 18

## COCCCNCCCCOc1ccc2ccccc2c1Br
Plasmodium falciparum [1]
  EC50: 3.04 µM
Plasmodium falciparum [2]
  inhibition at 5 µM: ≥ 50%
Plasmodium falciparum [3]
  inhibition at 5 µM: 51.3%
Plasmodium falciparum [4]
  inhibition at 5 µM: ≥ 50%
[5]
  selectivity ratio: 2.7
[6]
  CC50 at 72 h: 10.4 µM
Plasmodium berghei [7]
  inhibition at 10 µM: 49.4%
[8]
  CC50 at 72 h: 11 µM
Plasmodium falciparum [9]
  EC50: 1.12 µM
Plasmodium berghei [10]
  percent ookinete growth inhibition (ex vivo) at 10 µM: 66.1%
[11]
  selectivity ratio: 3.4
